{"source": "patent US7276631B2", "about": "“Cyclopentylamine and cyclohexylamine derivatives as NK-1/SSRI antagonists” (Bristol-Myers Squibb Company, priority 2004, dated 2007)", "key": {"[1]": {"biological_target": "T1, neurokinin-1 (NK-1) receptor (Homo sapiens, UniProt P25103)", "T1 construct": "a human glioblastoma-astrocytoma cell line that endogenously express the neurokinin-1 (NK-1) receptor; endogenous in cells; host or cells: U373 human glioblastoma-astrocytoma cells (membranes)", "T1 sequence (P25103 whole entry)": "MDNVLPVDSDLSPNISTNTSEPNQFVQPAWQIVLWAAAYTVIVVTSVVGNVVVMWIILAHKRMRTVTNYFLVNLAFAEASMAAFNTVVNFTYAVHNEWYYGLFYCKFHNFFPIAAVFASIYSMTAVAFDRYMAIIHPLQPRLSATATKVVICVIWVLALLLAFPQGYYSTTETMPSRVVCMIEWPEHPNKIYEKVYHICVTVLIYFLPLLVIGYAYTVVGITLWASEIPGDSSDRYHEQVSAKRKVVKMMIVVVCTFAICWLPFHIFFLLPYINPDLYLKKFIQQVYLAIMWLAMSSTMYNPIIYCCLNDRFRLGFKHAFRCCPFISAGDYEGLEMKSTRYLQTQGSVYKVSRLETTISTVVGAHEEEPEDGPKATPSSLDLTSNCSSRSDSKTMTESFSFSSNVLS", "assay": "NK-1 binding (competition with [125I] Substance P, U373 cell membranes)", "details": "[125I] Substance P displacement", "description": "U373 cells, a human glioblastoma-astrocytoma cell line that endogenously express the neurokinin-1 (NK-1) receptor, were grown in a monolayer culture at 37° C. in 5% CO2 and fed with Minimum Essential Medium (MEM) supplemented with 10% fetal bovine serum. Membranes were prepared as follows: Cells were washed twice with ice-cold phosphate-buffered saline (pH 7.4) and then incubated for 5 to 10 minutes with ice-cold 10 mM Tris buffer (pH 7.4) containing 5 mM EDTA. Cells were removed from plates, homogenized, and centrifuged at 32,000×g for 20 minutes. The resulting supernatant was discarded, and the pellet resuspended by homogenization in 50 mM Tris buffer (pH 7.4) containing 1 mM EDTA and centrifuged at 32,000×g for 20 minutes. The resulting supernatant was discarded, and the pellet resuspended by homogenization in NK-1 binding assay buffer (50 mM Tris-HCL (pH 7.4), 3 mM MnCl2, 200 μg/ml BSA, 5 μg/ml chymostatin, 40 μg/ml bacitracin and 4 μg/ml leupeptin).\nOn the day of an experiment the membrane preparation was thawed, homogenized and diluted with NK-1 binding assay buffer to the appropriate concentration. Competition binding assays were performed in 96 well plate format by incubating membranes (5-10 ug/well) with Bolton Hunter labeled [^125I] Substance P, at a concentration of […], and concentrations of drugs ranging from 10000 to 0.01 nM. Samples were incubated for 30 min at 20° C. then filtered through GF/B glass fiber filters (pretreated with 1% polyethyleneimine and 0.3% Triton X-100) using a Brandel cell harvester. The filters were then washed with 10 ml ice cold 50 mM Tris-HCL (pH 7.4) containing 3 mM MgCl2. Non-specific was defined in the presence of 2 μM L-733,060 (a non-peptide NK-1 antagonist). Amount of radioligand bound in the presence and absence of competitor was analyzed by plotting (−)log drug concentration versus the amount of radioligand specifically bound. The midpoint of the displacement curve (IC50, nM), signifies the potency. Ki values were calculated using the method of Cheng and Prusoff [Cheng, Y.-C. and Prusoff, W. H., Biochemical Pharmacology, Vol. 22, pp. 3099-3108, Pergamon Press (1973)]."}, "[2]": {"biological_target": "T2, human serotonin transporters (Homo sapiens, UniProt P31645)", "T2 construct": "expressed in transfected cells; host or cells: HEK-293 cells stably expressing hSERT (membranes)", "T2 sequence (P31645 whole entry)": "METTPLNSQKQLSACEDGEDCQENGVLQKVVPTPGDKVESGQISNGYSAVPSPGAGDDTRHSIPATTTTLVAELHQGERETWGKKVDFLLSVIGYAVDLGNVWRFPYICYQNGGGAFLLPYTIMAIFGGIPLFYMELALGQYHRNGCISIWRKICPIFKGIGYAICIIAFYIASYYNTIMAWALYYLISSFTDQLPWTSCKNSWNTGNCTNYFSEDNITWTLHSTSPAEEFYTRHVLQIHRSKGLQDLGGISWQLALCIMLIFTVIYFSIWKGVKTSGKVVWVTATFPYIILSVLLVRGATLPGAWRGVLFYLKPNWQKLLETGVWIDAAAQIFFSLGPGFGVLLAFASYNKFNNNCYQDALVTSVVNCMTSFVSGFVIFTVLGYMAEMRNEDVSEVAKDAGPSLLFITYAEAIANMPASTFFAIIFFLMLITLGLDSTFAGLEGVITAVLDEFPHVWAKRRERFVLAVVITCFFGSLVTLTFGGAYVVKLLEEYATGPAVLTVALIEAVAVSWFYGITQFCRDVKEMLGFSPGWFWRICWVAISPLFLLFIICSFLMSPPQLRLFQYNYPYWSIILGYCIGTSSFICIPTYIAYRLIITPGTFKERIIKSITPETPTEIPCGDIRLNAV", "assay": "Serotonin transporter binding assay ([3H]-citalopram, HEK-hSERT cell membranes)", "details": "[3H]-citalopram displacement, read-out: SERT IC50", "description": "HEK-293 cells that stably express human serotonin transporters (HEK-hSERT cells) were grown at 37° C. in 5% CO2 as a monolayer in medium consisting of EMEM supplemented with 10% fetal bovine serum and G418 sulfate (500 μg/ml). To prepare membranes for radioligand binding experiments, cells were rinsed twice with phosphate-buffered saline (138 mM NaCl, 4.1 mM KCl, 5.1 mM Na2PO4, 1.5 mM […], 11.1 mM glucose, pH 7.4). Cells were transferred from plates to polypropylene tubes (16×100 mm), centrifuged at 1,200×g for 5 min and were frozen at −80° C. until assay. Following centrifugation, pellets were resuspended by homogenization in buffer consisting of 50 mM Tris (pH 7.7 at 25° C.), 120 mM NaCl and 5 mM KCl and then centrifuged at 32,000×g for 10 min. Following centrifugation, supernatants were discarded and pellets were resuspended in buffer consisting of 50 mM Tris (pH 7.4 at 25° C.), 150 mM NaCl and 5 mM KCl. Membrane homogenates (200 μl/plate) were incubated with 1 nM [^3H]-citalopram (specific activity=85 Ci/mmol) and increasing concentrations of test compounds for 1 hr at 25° C. in a total volume of 250 μl. The assay buffer consisted of 50 mM Tris (pH 7.4 at 25° C.), 120 mM NaCl and 5 mM KCl (pH 7.4 with conc. HCl). Plates were incubated for 1 hr at 25° C., then filtered through 0.5% PEI treated Whatman GF/B filters using a Brandel cell harvester. Filters were washed three times with 3 ml of ice-cold tris wash buffer. Non-specific binding was defined with 10 μM fluoxetine. Amount of radioligand bound in the presence and absence of competitor was analyzed by plotting (−)log drug concentration versus the amount of radioligand specifically bound. The midpoint of the displacement curve (IC50, nM), signifies the potency. Ki values were calculated using the method of Cheng and Prusoff [Cheng, Y.-C. and Prusoff, W. H., Biochemical Pharmacology, Vol. 22, pp. 3099-3108, Pergamon Press (1973)]."}}, "data": [{"smiles": "FC(F)(F)c1cc(COCC2(c3ccccc3)CCC(N3CCCCC3)C2)cc(C(F)(F)F)c1", "note": "(stereo not drawn) [Example 1, 1-(3-((3,5-Bis(trifluoromethyl)benzyloxy)methyl)-3-phenylcyclopentyl)piperidine]", "values": [{"measurement": "IC50", "setting": "[1]", "value": "< 20", "unit": "nM"}]}, {"smiles": "FC(F)(F)c1cc(COCC2(c3ccccc3)CCC(N3CCCC3)C2)cc(C(F)(F)F)c1", "note": "(stereo not drawn) [Example 2, 1-(3-((3,5-Bis(trifluoromethyl)benzyloxy)methyl)-3-phenylcyclopentyl)pyrrolidine]", "values": [{"measurement": "IC50", "setting": "[1]", "value": "< 20", "unit": "nM"}]}, {"smiles": "FC(F)(F)c1cc(COCC2(c3ccccc3)CCC(N3CCOCC3)C2)cc(C(F)(F)F)c1", "note": "(stereo not drawn) [Example 3, 4-(3-((3,5-bis(trifluoromethyl)benzyloxy)methyl)-3-phenylcyclopentyl)morpholine]", "values": [{"measurement": "IC50", "setting": "[1]", "value": "20 to 100", "unit": "nM"}]}, {"smiles": "FC(F)(F)c1cc(COCC2(c3ccccc3)CCC(NC3CC3)C2)cc(C(F)(F)F)c1", "note": "(stereo not drawn) [Example 4, 3-((3,5-Bis(trifluoromethyl)benzyloxy)methyl)-N-cyclopropyl-3-phenylcyclopentanamine]", "values": [{"measurement": "IC50", "setting": "[1]", "value": "< 20", "unit": "nM"}]}, {"smiles": "COCCN(C)C1CCC(COCc2cc(C(F)(F)F)cc(C(F)(F)F)c2)(c2ccccc2)C1", "note": "(stereo not drawn) [Example 5, 3-((3,5-bis(trifluoromethyl)benzyloxy)methyl)-N-(2-methoxyethyl)-N-methyl-3-phenylcyclopentanamine]", "values": [{"measurement": "IC50", "setting": "[1]", "value": "< 20", "unit": "nM"}]}, {"smiles": "CN(C)C1CCC(COCc2cc(C(F)(F)F)cc(C(F)(F)F)c2)(c2ccccc2)C1", "note": "(stereo not drawn) [Example 6, 3-((3,5-bis(trifluoromethyl)benzyloxy)methyl)-N,N-dimethyl-3-phenylcyclopentanamine]", "values": [{"measurement": "IC50", "setting": "[1]", "value": "< 20", "unit": "nM"}, {"measurement": "IC50", "setting": "[2]", "value": "20 to 100", "unit": "nM"}]}, {"smiles": "N[C@H]1CC[C@](COCc2cc(C(F)(F)F)cc(C(F)(F)F)c2)(c2ccccc2)C1", "note": "[Example 7, (1S,3R)-3-((3,5-bis(trifluoromethyl)benzyloxy)methyl)-3-phenylcyclopentanamine]", "values": [{"measurement": "IC50", "setting": "[1]", "value": "< 20", "unit": "nM"}, {"measurement": "IC50", "setting": "[2]", "value": "20 to 100", "unit": "nM"}]}, {"smiles": "N[C@@H]1CC[C@@](COCc2cc(C(F)(F)F)cc(C(F)(F)F)c2)(c2ccccc2)C1", "note": "[Example 8, (1R,3S)-3-((3,5-bis(trifluoromethyl)benzyloxy)methyl)-3-phenylcyclopentanamine]", "values": [{"measurement": "IC50", "setting": "[1]", "value": "< 20", "unit": "nM"}, {"measurement": "IC50", "setting": "[2]", "value": "100 to 300", "unit": "nM"}]}, {"smiles": "N[C@@H]1CC[C@](COCc2cc(C(F)(F)F)cc(C(F)(F)F)c2)(c2ccccc2)C1", "note": "[Example 9, (1R,3R)-3-((3,5-bis(trifluoromethyl)benzyloxy)methyl)-3-phenylcyclopentanamine]", "values": [{"measurement": "IC50", "setting": "[1]", "value": "< 20", "unit": "nM"}, {"measurement": "IC50", "setting": "[2]", "value": "20 to 100", "unit": "nM"}]}, {"smiles": "N[C@H]1CC[C@@](COCc2cc(C(F)(F)F)cc(C(F)(F)F)c2)(c2ccccc2)C1", "note": "[Example 10, (1S,3S)-3-((3,5-bis(trifluoromethyl)benzyloxy)methyl)-3-phenylcyclopentanamine]", "values": [{"measurement": "IC50", "setting": "[1]", "value": "< 20", "unit": "nM"}, {"measurement": "IC50", "setting": "[2]", "value": "< 20", "unit": "nM"}]}, {"smiles": "CNC1CCCC(COCc2cc(C(F)(F)F)cc(C(F)(F)F)c2)(c2ccccc2)C1", "note": "(stereo not drawn) [Example 11, 3-((3,5-bis(trifluoromethyl)benzyloxy)methyl)-N-methyl-3-phenylcyclohexanamine]", "values": [{"measurement": "IC50", "setting": "[1]", "value": "< 20", "unit": "nM"}, {"measurement": "IC50", "setting": "[2]", "value": "100 to 300", "unit": "nM"}]}, {"smiles": "CN(C)C1CCCC(COCc2cc(C(F)(F)F)cc(C(F)(F)F)c2)(c2ccccc2)C1", "note": "(stereo not drawn) [Example 12, 3-((3,5-bis(trifluoromethyl)benzyloxy)methyl)-N,N-dimethyl-3-phenylcyclohexanamine]", "values": [{"measurement": "IC50", "setting": "[1]", "value": "100 to 300", "unit": "nM"}]}, {"smiles": "CCN(CC)C1CCCC(COCc2cc(C(F)(F)F)cc(C(F)(F)F)c2)(c2ccccc2)C1", "note": "(stereo not drawn) [Example 13, 3-((3,5-bis(trifluoromethyl)benzyloxy)methyl)-N,N-diethyl-3-phenylcyclohexanamine]", "values": [{"measurement": "IC50", "setting": "[1]", "value": "20 to 100", "unit": "nM"}, {"measurement": "IC50", "setting": "[2]", "value": "100 to 300", "unit": "nM"}]}, {"smiles": "CCNC1CCCC(COCc2cc(C(F)(F)F)cc(C(F)(F)F)c2)(c2ccccc2)C1", "note": "(stereo not drawn) [Example 14, 3-((3,5-bis(trifluoromethyl)benzyloxy)methyl)-N-ethyl-3-phenylcyclohexanamine]", "values": [{"measurement": "IC50", "setting": "[1]", "value": "< 20", "unit": "nM"}, {"measurement": "IC50", "setting": "[2]", "value": "100 to 300", "unit": "nM"}]}, {"smiles": "FC(F)(F)c1cc(COCC2(c3ccccc3)CCCC(NC3CC3)C2)cc(C(F)(F)F)c1", "note": "(stereo not drawn) [Example 15, 3-((3,5-bis(trifluoromethyl)benzyloxy)methyl)-N-cyclopropyl-3-phenylcyclohexanamine]", "values": [{"measurement": "IC50", "setting": "[1]", "value": "20 to 100", "unit": "nM"}]}, {"smiles": "FC(F)(F)c1cc(COCC2(c3ccccc3)CCCC(N3CCOCC3)C2)cc(C(F)(F)F)c1", "note": "(stereo not drawn) [Example 16, 4-(3-((3,5-bis(trifluoromethyl)benzyloxy)methyl)-3-phenylcyclohexyl)morpholine]", "values": [{"measurement": "IC50", "setting": "[1]", "value": "100 to 300", "unit": "nM"}]}, {"smiles": "FC(F)(F)c1cc(COCC2(c3ccccc3)CCCC(N3CCCC3)C2)cc(C(F)(F)F)c1", "note": "(stereo not drawn) [Example 17, 1-(3-((3,5-bis(trifluoromethyl)benzyloxy)methyl)-3-phenylcyclohexyl)pyrrolidine]", "values": [{"measurement": "IC50", "setting": "[1]", "value": "100 to 300", "unit": "nM"}]}, {"smiles": "FC(F)(F)c1cc(COCC2(c3ccccc3)CCCC(N3CCCCC3)C2)cc(C(F)(F)F)c1", "note": "(stereo not drawn) [Example 18, 1-(3-((3,5-bis(trifluoromethyl)benzyloxy)methyl)-3-phenylcyclohexyl)piperidine]", "values": [{"measurement": "IC50", "setting": "[1]", "value": "20 to 100", "unit": "nM"}]}, {"smiles": "CN1CCN(C2CCCC(COCc3cc(C(F)(F)F)cc(C(F)(F)F)c3)(c3ccccc3)C2)CC1", "note": "(stereo not drawn) [Example 19, 1-(3-((3,5-bis(trifluoromethyl)benzyloxy)methyl)-3-phenylcyclohexyl)-4-methylpiperazine]", "values": [{"measurement": "IC50", "setting": "[1]", "value": "100 to 300", "unit": "nM"}]}]}
